In US6846933B1, “Antimycobacterial compounds and method for making the same” (priority 2000, dated 2005):
In brackets after ≈: the same amount, converted by molar mass. Where two headings read alike, the source gives them in different places.

What was measured:
[1] = system: Mycobacterium tuberculosis H37Rv (ATCC 27294); assay: TAACF MIC / primary screen vs M. tuberculosis H37Rv (MABA or BACTEC 460); assay type: cell-based; conditions: for MIC: Mycobacterium tuberculosis; for MIC (ug/mg): Table 1, M. tuberculosis assay
[2] = system: M. tuberculosis Erdman (ATCC 35801) in monolayers of mouse bone marrow macrophages; assay: Killing of M. tuberculosis Erdman in mouse bone marrow macrophages; assay type: cell-based; conditions: Mycobacterium tuberculosis, Bone marrow macrophage, 168 h
M. tuberculosis EMB-R = assay: microbe, parasite or virus in culture; assay type: cell-based; conditions: Mycobacterium tuberculosis, read-out: MIC EMB-R (ug/ml)
M. tuberculosis Erdman = assay: MIC vs M. tuberculosis Erdman; assay type: cell-based; conditions: Mycobacterium tuberculosis
M. tuberculosis TAC-R = assay: microbe, parasite or virus in culture; assay type: cell-based; conditions: Mycobacterium tuberculosis, Bactec, strain panel
M. avium (ATCC 25291) = assay: TAACF M. avium assay; assay type: cell-based, Mycobacterium avium; parameters: % Inhibition: concentration or dose not given beside the values; conditions: for % Inhibition: M. avium assay; for MIC: Mycobacterium avium, ATCC25291, M. avium assay
VERO cells = assay: Cytotoxicity in VERO cells (MTT, 72 hours); assay type: cell-based; conditions: Chlorocebus sabaeus
M. tuberculosis ETA-R = assay: MIC vs ETA-R M. tuberculosis; assay type: cell-based; conditions: Mycobacterium tuberculosis, read-out: MIC ETA-R (ug/ml)
[3] = Quantitative estimate of relative lipophilicity (chloroform/water partitioning vs isoniazid); conditions: ratio chloroform:water compared to same ratio for isoniazid as standard (INH = unity)
[4] = M. tuberculosis assay, Tables 4 and 5, read-out: MIC
[5] = M. tuberculosis assay, Bactec, Tables 6, 7, 8
[6] = Bactec, strain panel, read-out: MIC H37Rv
[7] = Bactec, strain panel, read-out: MIC Erdman
[8] = Alamar, Table 11, read-out: MIC
[9] = BACTEC, Tables 2 and 3, read-out: MIC
[10] = M. tuberculosis assay, Table 13, primary screen
[11] = M. tuberculosis assay, Table 13, primary screen, read-out: MIC
[12] = M. tuberculosis assay, Alamar, Table 7
[13] = Bactec, Tables 10-12, read-out: MIC

Work on `COc1ccccc1/C=N/NC(=O)c1ccncc1` [Sample ID 102871] yielded an MIC [1, 4] of 0.2 µg/mL (≈ 0.783 µM), an EC90 [2] of 0.06 µg/mL (≈ 0.235 µM) and an EC99 [2] of 0.23 µg/mL.
`CC(/C=N/NC(=O)c1ccncc1)=C\c1ccccc1` [Sample ID 103062] showed an MIC [1, 4] of 0.2 µg/mL (≈ 0.754 µM), an EC90 [2] of 0.03 µg/mL (≈ 0.113 µM) and an EC99 [2] of 0.15 µg/mL.
In the case of `O=C(N/N=C/c1ccc(F)cc1)c1ccncc1` [Sample ID 103167], the MIC [1, 4] is reported as 0.1 µg/mL (≈ 0.411 µM), the EC90 [2] is reported as 0.02 µg/mL (≈ 0.0822 µM) and the EC99 [2] is reported as 0.07 µg/mL.
In the case of `O=C(NN=C1CCCC1)c1ccncc1` [Sample ID 111298], the MIC [1, 5] is reported as 0.02 µg/mL (≈ 0.0984 µM), the MIC [1, 4] is reported as 0.025 µg/mL (≈ 0.123 µM) and the MIC ([1]; read-out: MIC H37Rv (ug/ml), Bactec, strain panel) is reported as 0.05 µg/mL (≈ 0.246 µM). The MIC (M. tuberculosis EMB-R) was 0.05 µg/mL (≈ 0.246 µM), the MIC (M. tuberculosis Erdman; read-out: MIC Erdman (ug/ml)) was 0.05 µg/mL (≈ 0.246 µM) and the EC90 [2] was 0.03 µg/mL (≈ 0.148 µM). For the same molecule, the EC99 [2] was 0.16 µg/mL.
Molecule `CC1C/C(=N/NC(=O)c2ccncc2)CC(C)(C)C1` (centres unmarked) [Sample ID 114353] has an MIC [1, 6] of less than 0.1 µg/mL, an MIC [1, 5] greater than 6.25 µg/mL and an MIC (M. tuberculosis EMB-R) of less than 0.1 µg/mL. For the same molecule, the MIC (M. tuberculosis Erdman; [7]) was less than 0.1 µg/mL.
For `O=C(N/N=C/c1cc(Cl)ccc1Cl)c1ccncc1` [Sample ID 117150], the MIC [1, 6] was less than 0.05 µg/mL, the MIC ([1]; M. tuberculosis assay, Bactec, Tables 6, 7, 8, read-out: MIC) was 0.1 µg/mL (≈ 0.34 µM) and the MIC (M. tuberculosis TAC-R) was greater than 3.25 µg/mL. For the same molecule, the “% Inhibition” value (M. avium (ATCC 25291); Alamar, Table 11) was 0%, the MIC (M. avium (ATCC 25291); [8]) was greater than 12.5 µg/mL and the MIC (M. avium (ATCC 25291); [9]) was greater than 3.25 µg/mL. For the same molecule, the MIC (M. tuberculosis Erdman; read-out: MIC Erdman (ug/ml)) was less than 0.05 µg/mL.
For `CC(=O)N1N=C(c2ccncc2)OC1c1c(Cl)cccc1Cl` (centres unmarked) [Sample ID 117899], the “% Inhibition” value (M. avium (ATCC 25291); Alamar, Table 11) was 12% and the MIC (M. avium (ATCC 25291); [8]) was greater than 12.5 µg/mL.
In the case of `CC(=O)N1N=C(c2ccncc2)OC1(C)c1ccccc1` (centres unmarked) [Sample ID 122487], the “% Inhibition” value [1, 10] is reported as 98% and the MIC [1, 11] is reported as less than 12.5 µg/mL.
With `O=C(N/N=C/c1c(F)cccc1F)c1ccncc1` [Sample ID 122489] the “% Inhibition” value [1, 12] was 99%, the MIC ([1]; M. tuberculosis assay, Alamar, Tables 7 and 9) was less than 0.2 µg/mL and the “% Inhibition” value (M. avium (ATCC 25291); Bactec, Tables 10-12) was 45%. It also gave an MIC (M. avium (ATCC 25291); [13]) greater than 12.5 µg/mL and an IC50 (VERO cells) greater than 125 µg/mL.
For `O=C(N/N=C/c1ccc(Cl)c(Cl)c1)c1ccncc1` [Sample ID 122490], the “% Inhibition” value [1, 12] was 99%, the MIC ([1]; M. tuberculosis assay, Alamar, Tables 7 and 9, read-out: MIC) was less than 0.2 µg/mL and the “% Inhibition” value (M. avium (ATCC 25291); Bactec, Tables 10-12) was 20%. It also gave an MIC (M. avium (ATCC 25291); [13]) greater than 12.5 µg/mL and an IC50 (VERO cells) greater than 10 µg/mL.
With `CC(=O)N1N=C(c2ccncc2)OC1c1ccc(Cl)c([N+](=O)[O-])c1` (centres unmarked) [Sample ID 122491] the “% Inhibition” value [1, 10] was 98% and the MIC [1, 11] was less than 12.5 µg/mL.
For `CC(=O)N1N=C(c2ccncc2)OC1c1c(F)cccc1F` (centres unmarked) [Sample ID 122492], the “% Inhibition” value [1, 10] was 99% and the MIC [1, 11] was less than 12.5 µg/mL.
For `O=C(NNC(=S)Nc1ccccc1)c1ccncc1` [Sample ID 122697], the “% Inhibition” value [1, 10] was 79% and the MIC [1, 11] was greater than 12.5 µg/mL.
With `CC(=O)N1N=C(c2ccncc2)OC1c1ccccc1[N+](=O)[O-]` (centres unmarked) [Sample ID 123667] the “% Inhibition” value [1, 10] was 38% and the MIC [1, 11] was greater than 12.5 µg/mL.
With `CC(=O)N1N=C(c2ccncc2)OC1c1ccc(Cl)c(Cl)c1` (centres unmarked) [Sample ID 123669] the “% Inhibition” value (M. avium (ATCC 25291); Bactec, Tables 10-12) was 65% and the MIC (M. avium (ATCC 25291); [13]) was greater than 12.5 µg/mL.
With `O=C(NNC(=S)Nc1ccc(Br)cc1)c1ccncc1` [Sample ID 125304] the “% Inhibition” value (M. avium (ATCC 25291); Bactec, Tables 10-12) was 15% and the MIC (M. avium (ATCC 25291); [13]) was greater than 12.5 µg/mL.
For `O=C(NNC(=S)Nc1ccc(Cl)cc1)c1ccncc1` [Sample ID 126719], the “% Inhibition” value (M. avium (ATCC 25291); Bactec, Tables 10-12) was 84% and the MIC (M. avium (ATCC 25291); Bactec, Tables 10-12) was greater than 12.5 µg/mL.
In the case of `CCOC(=O)/C(CCc1ccccc1)=N\NC(=O)c1ccncc1` [Sample ID 132358], the MIC [1, 6] is reported as 0.1 µg/mL (≈ 0.307 µM), the “MIC (ug/mg)” value ([1]; Bactec) is reported as 0.1 µg/mL (≈ 0.307 µM) and the MIC (M. tuberculosis EMB-R) is reported as greater than 3.2 µg/mL. The MIC (M. avium (ATCC 25291); [9]) was greater than 3.2 µg/mL, the MIC (M. tuberculosis ETA-R) was 0.8 µg/mL (≈ 2.46 µM) and the MIC (M. tuberculosis Erdman; [7]) was 0.1 µg/mL (≈ 0.307 µM).
With `O=C(N/N=C/C=C(c1ccccc1)c1ccccc1)c1ccncc1` [Sample ID 132532] the MIC [1, 6] was 0.1 µg/mL (≈ 0.305 µM), the “MIC (ug/mg)” value ([1]; Bactec) was 0.1 µg/mL (≈ 0.305 µM) and the MIC (M. tuberculosis EMB-R) was greater than 3.2 µg/mL. For the same molecule, the MIC (M. avium (ATCC 25291); [9]) was greater than 3.2 µg/mL, the MIC (M. tuberculosis ETA-R) was 1.6 µg/mL (≈ 4.89 µM) and the MIC (M. tuberculosis Erdman; [7]) was 0.1 µg/mL (≈ 0.305 µM).
With `O=C(NN=Cc1ccccc1[N+](=O)[O-])c1ccncc1` [Schiff Base Example 47, Isonicotinoylhydrazone of 2-Nitrobenzaldehyde] the “Relative Lipophilicity” value [3] was 316.
